Measurements published in patent US5688485A, “Radiolabelled complexes of ester-substituted diaminethiols” (The DuPont Merck Pharmaceutical Company, priority 1992, dated 1997).
Read-outs that look alike come from different tables or passages of the source.

Columns and labels:
[1] = in words; cited from earlier work
[2] = rhesus monkey, in vivo
Method: Three adult male Rhesus monkeys were used for planar scintigraphic imaging. Anesthesia was induced with ketamine and maintained with 1-2% halothane in a 70/30 mixture of nitrous oxide and oxygen.
All acquisitions were performed using a Picker Digital Dyna Camera and a Siemens MicroDELTA terminal/MAXDELTA system. A high resolution parallel-hole collimator ("HEX48") was mounted on the camera. The general static acquisition protocol was employed, using an acquisition matrix of 128 by 128 pixels, in word mode. Linearity, Z- and uniformity correction as provided for in the camera console, were employed and maintained.
To provide correction for attenuation, a transmission image of each animal was required. This had to be acquired in such a fashion as to permit the location of individual organs to be delineated from an aligned emission image. To do this, an 18-inch commercial refillable flood source (Nuclear Associates, Carle Place, N.Y.) was filled with water on a flat, horizontal surface. It was then loaded with between 20 mCi (740 Mbq) and 30 mCi (1110 Mbq) of Tc99mO4^-, and placed on a rolling cart. A Picker high-resolution collimator was then placed atop the source and the cart positioned under the patient examination table of the camera.
For each animal, a transmission image was acquired immediately prior to the control study injection, in the following fashion: An initial "flood" image was taken of the collimated source with neither the animal nor the examination table in place. Without moving anything else, the examination table, with the anesthetized animal, was placed between the source and the camera. Images were then taken of both the upper and lower portions of the body using a 128×128 pixel matrix in word mode. Table positioning was restricted by the track system so that positioning markers were necessary only for the dimension parallel to the animal's vertical axis.
Without moving the camera, the source was withdrawn and removed from the room. Adjustments to the camera-subject distance were made only by raising or lowering the table. The control compound was then injected and the control study begun. In this way, organs could be identified from the control study and the regions applied to the transmission study to determine attenuation correction factors on a per-organ basis. In addition, an "efficiency" factor was determined from images taken of a small flask containing a measured amount of radioactivity.
Following the injection of Tc-99m labeled materials, images were acquired of each animal using "spot" views over the upper and lower portions of the body with conjugate views (i.e. 180-degree opposed views) for each.
The resulting image data was analyzed by creating regions of interest (ROI's) for each organ and determining the sum of the recorded gamma photons for each organ in each view. From the transmission view, an attenuation correction factor was derived for each organ and the activity in the organ determined by taking the square root of the product of the ROI sums for conjugate views of the organ and then multiplying by the attenuation correction factor for that organ and then by the efficiency factor.
Each animal was imaged with Tc-99m-(L,L)-N,N'-1,2-ethylenediylbiscysteine, diethyl ester in order to serve as its own control. One test isomer was then administered to each of the monkeys. Frequent blood samples were drawn from a peripheral leg vein. Regions of interest were drawn around all pertinent organs and time-activity curves were constructed.

[3] = cited from earlier work

For `O=C(O)CNC(=O)c1ccccc1[123I]` [Example I-123-OIH], the “radiation burden to the patient” value [1] is listed as “much lower radiation burden to the patient”.

For “anti-Tc-99m-(D,L)-N,N'-1,2-ethylenediylbiscysteine, diethyl ester [Example 3]”, the “Biodistribution: Brain” value ([2]; 30 min) was 2.1 percentage of the initial inje, the “Biodistribution: Gall Bladder” value ([2]; 30 min) was 2.7 percentage of the initial inje and the “Biodistribution: Urinary Bladder” value ([2]; 30 min) was 4.2 percentage of the initial inje. The “Biodistribution: Brain” value ([2]; 60 min) was 1.8 percentage of the initial inje, the “Biodistribution: Gall Bladder” value ([2]; 60 min) was 6.4 percentage of the initial inje and the “Biodistribution: Urinary Bladder” value ([2]; 60 min) was 4.0 percentage of the initial inje.

In the case of “Tc-99m-diethylenetriamine pentaacetic acid [Tc-99m-DTPA]”, the maximum extraction efficiency ([3]; in vivo) is listed as 20-25% and the “Route / rate of renal elimination” value ([3]; in words) is listed as “eliminated entirely or nearly entirely by glomerular filtration”.

In the case of “Tc-99m-(D,D)-N,N'-1,2-ethylenediylbiscysteine, diethyl ester [Example 5]”, the “Biodistribution: Brain” value ([2]; 30 min) is reported as 1.7 percentage of the initial inje, the “Biodistribution: Gall Bladder” value ([2]; 30 min) is reported as 5.5 percentage of the initial inje and the “Biodistribution: Urinary Bladder” value ([2]; 30 min) is reported as 5.0 percentage of the initial inje. The “Biodistribution: Brain” value ([2]; 60 min) was 1.4 percentage of the initial inje, the “Biodistribution: Gall Bladder” value ([2]; 60 min) was 5.2 percentage of the initial inje and the “Biodistribution: Urinary Bladder” value ([2]; 60 min) was 15 percentage of the initial inje.

In the case of “Tc-99m-(L,L)-N,N'-1,2-ethylenediylbiscysteine, diethyl ester [Example 4]”, the “Biodistribution: Brain” value ([2]; 30 min) is reported as 5.8 percentage of the initial inje, the “Biodistribution: Gall Bladder” value ([2]; 30 min) is reported as 10 percentage of the initial inje and the “Biodistribution: Urinary Bladder” value ([2]; 30 min) is reported as 29 percentage of the initial inje. The “Biodistribution: Brain” value ([2]; 60 min) was 5.6 percentage of the initial inje, the “Biodistribution: Gall Bladder” value ([2]; 60 min) was 17 percentage of the initial inje and the “Biodistribution: Urinary Bladder” value ([2]; 60 min) was 42 percentage of the initial inje.

In the case of `O=C(O)CNC(=O)c1ccccc1[131I]` [Example I-131-OIH, I-131-o-iodohippurate], the renal extraction efficiency ([3]; in vivo) is given as 65-80%, the “Route / rate of renal elimination” value ([3]; in words) is given as “rapidly removed from the blood by active tubular secretion” and the “radiation burden to the patient” value [1] is given as “significant radiation burden to the patient”.

In the case of “Tc-99m-mercaptoacetyltriglycine [Tc-99m-MAG3]”, the “Route / rate of renal elimination” value ([3]; in words) is given as “secreted by the kidneys selectively by tubular secretion and approximately as rapidly as OIH” and the organ specificity ([3]; in words) is given as “less than desired”.

For “syn-Tc-99m-(D,L)-N,N'-1,2-ethylenediylbiscysteine, diethyl ester [Example 2]”, the Renal excretion [2] was “most rapidly excreted”, the “Uptake in other organs / liver activity” value [2] was “low uptake in other organs, especially the gall bladder” and the “Biodistribution: Brain” value ([2]; 30 min) was 3.4 percentage of the initial inje. The “Biodistribution: Gall Bladder” value ([2]; 30 min) was 2.2 percentage of the initial inje, the “Biodistribution: Urinary Bladder” value ([2]; 30 min) was 58 percentage of the initial inje and the “Biodistribution: Brain” value ([2]; 60 min) was 3.0 percentage of the initial inje. The “Biodistribution: Gall Bladder” value ([2]; 60 min) was 6.2 percentage of the initial inje and the “Biodistribution: Urinary Bladder” value ([2]; 60 min) was 74 percentage of the initial inje.

For `Nc1ccc(C(=O)NCC(=O)O)cc1` [PAH, p-aminohippuric acid], the “removed from the plasma by active secretion into the tubules” value ([3]; in vivo) is listed as “approximately 70%”.
